Measurements taken from ChEMBL document CHEMBL4261630.

Biological target: Sialidase (Vibrio cholerae serotype O1 (strain ATCC 39315 / El Tor Inaba N16961), UniProt P0C6E9)
Sequence (P0C6E9 whole entry, one chain of several): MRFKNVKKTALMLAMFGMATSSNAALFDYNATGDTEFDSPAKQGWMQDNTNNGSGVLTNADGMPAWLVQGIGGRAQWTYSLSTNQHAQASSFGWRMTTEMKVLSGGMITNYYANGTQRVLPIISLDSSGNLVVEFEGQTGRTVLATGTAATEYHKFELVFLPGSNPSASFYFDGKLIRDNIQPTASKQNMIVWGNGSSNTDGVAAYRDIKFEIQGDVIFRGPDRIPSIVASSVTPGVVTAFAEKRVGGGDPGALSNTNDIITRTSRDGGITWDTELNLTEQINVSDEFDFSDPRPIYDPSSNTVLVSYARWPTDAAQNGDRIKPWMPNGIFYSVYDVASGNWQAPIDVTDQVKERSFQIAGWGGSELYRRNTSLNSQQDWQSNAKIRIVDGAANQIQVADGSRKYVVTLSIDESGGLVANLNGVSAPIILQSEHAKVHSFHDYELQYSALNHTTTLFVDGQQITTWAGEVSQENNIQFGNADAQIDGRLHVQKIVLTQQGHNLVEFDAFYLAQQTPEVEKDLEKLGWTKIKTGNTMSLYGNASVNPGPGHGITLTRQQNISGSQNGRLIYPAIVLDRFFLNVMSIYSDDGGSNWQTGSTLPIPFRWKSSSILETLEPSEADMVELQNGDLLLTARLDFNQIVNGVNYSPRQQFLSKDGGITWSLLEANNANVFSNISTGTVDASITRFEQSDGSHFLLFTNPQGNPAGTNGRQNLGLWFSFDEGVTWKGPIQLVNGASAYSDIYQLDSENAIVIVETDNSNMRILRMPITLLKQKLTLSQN
Assay: Inhibition of Vibrio cholerae sialidase using Neu5Acalpha2-3GalbetapNP as substrate after 30 mins by colorimetric assay
Settings: not given
`CC(=O)N[C@H]1[C@H]([C@H](O)[C@H](O)Cn2cc(C[C@H](N)C(=O)N[C@H](CCC(=O)O)C(N)=O)nn2)OC(C(=O)O)=C[C@@H]1O` showed an IC50 of 10.9 µM.

Biological target: T1, Sialidase B (Streptococcus pneumoniae serotype 4 (strain ATCC BAA-334 / TIGR4)) (UniProt Q54727)
T1 sequence (whole entry): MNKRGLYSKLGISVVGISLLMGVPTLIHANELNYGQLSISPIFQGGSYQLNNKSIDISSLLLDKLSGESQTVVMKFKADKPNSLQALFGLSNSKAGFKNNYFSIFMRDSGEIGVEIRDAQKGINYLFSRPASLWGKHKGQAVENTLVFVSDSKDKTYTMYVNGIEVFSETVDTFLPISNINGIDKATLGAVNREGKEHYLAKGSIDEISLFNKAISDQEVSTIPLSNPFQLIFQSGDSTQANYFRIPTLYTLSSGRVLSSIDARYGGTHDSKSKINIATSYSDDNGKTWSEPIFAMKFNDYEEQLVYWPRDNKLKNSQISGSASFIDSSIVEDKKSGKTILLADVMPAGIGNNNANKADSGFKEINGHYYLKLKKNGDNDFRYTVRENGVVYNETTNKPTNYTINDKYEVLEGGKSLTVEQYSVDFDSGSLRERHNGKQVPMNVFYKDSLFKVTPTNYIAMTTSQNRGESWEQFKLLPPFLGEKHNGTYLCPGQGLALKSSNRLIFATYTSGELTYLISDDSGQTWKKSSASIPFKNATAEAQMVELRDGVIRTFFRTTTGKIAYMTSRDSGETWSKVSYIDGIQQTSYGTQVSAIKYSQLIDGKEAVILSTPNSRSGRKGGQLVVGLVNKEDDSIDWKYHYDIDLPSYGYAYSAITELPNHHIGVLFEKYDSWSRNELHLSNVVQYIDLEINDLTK
Settings: at 1 mM
In the case of `CC(=O)N[C@H]1[C@H]([C@H](O)[C@H](O)Cn2cc(C[C@H](N)C(=O)N[C@H](CCC(=O)O)C(N)=O)nn2)OC(C(=O)O)=C[C@@H]1O`, the inhibition is reported as 39%.

Biological target: not listed separately
Assay: Inhibition of Pasteurella multocida sialyltransferase 1 using Neu5Acalpha2-3GalbetapNP as substrate after 30 mins by colorimetric assay
Settings: not given
In the case of `CC(=O)N[C@H]1[C@H]([C@H](O)[C@H](O)Cn2cc(C[C@H](N)C(=O)N[C@H](CCC(=O)O)C(N)=O)nn2)OC(C(=O)O)=C[C@@H]1O`, the IC50 is reported as over 1000 µM.

Biological target: Sialidase A (Streptococcus pneumoniae) (UniProt P62575)
Sequence (P62575 whole entry): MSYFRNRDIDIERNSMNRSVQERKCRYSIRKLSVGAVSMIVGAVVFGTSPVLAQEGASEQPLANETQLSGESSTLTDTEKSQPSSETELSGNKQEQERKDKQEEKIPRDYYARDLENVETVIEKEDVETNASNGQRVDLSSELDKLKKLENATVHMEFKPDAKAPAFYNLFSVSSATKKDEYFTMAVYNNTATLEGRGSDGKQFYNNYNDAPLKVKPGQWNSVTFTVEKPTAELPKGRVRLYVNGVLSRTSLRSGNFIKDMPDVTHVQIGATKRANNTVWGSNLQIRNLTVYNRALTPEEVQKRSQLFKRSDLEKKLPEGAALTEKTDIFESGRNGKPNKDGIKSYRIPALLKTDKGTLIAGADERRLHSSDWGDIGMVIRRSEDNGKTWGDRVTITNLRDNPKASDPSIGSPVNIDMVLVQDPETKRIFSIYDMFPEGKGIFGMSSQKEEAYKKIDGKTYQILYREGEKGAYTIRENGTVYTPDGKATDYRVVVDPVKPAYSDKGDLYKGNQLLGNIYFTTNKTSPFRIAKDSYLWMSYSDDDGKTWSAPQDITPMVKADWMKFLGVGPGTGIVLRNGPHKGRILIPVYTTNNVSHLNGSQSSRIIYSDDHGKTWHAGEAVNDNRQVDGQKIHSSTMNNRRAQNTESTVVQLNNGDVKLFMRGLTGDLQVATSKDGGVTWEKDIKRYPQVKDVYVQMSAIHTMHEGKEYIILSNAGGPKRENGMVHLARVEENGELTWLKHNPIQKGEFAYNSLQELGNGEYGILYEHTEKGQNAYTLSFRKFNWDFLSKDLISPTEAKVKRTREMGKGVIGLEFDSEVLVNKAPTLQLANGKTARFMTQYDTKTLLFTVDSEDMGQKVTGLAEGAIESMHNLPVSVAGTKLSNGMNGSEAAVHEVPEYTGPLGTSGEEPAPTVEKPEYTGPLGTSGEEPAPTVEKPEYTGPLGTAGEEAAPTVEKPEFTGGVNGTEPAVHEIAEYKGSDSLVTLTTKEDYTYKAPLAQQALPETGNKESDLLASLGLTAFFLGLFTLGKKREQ
Settings: at 1 mM
Work on `CC(=O)N[C@H]1[C@H]([C@H](O)[C@H](O)Cn2cc(C[C@H](N)C(=O)N[C@H](CCC(=O)O)C(N)=O)nn2)OC(C(=O)O)=C[C@@H]1O` yielded an inhibition of 94.7%.

Tested on: Paenarthrobacter ureafaciens
Settings: at 0.1 mM
With `CC(=O)N[C@H]1[C@H]([C@H](O)[C@H](O)Cn2cc(C[C@H](N)C(=O)N[C@H](CCC(=O)O)C(N)=O)nn2)OC(C(=O)O)=C[C@@H]1O` the inhibition was 95.7%.

Tested on: Paenarthrobacter ureafaciens
Settings: at 1 mM
`CC(=O)N[C@H]1[C@H]([C@H](O)[C@H](O)Cn2cc(C[C@H](N)C(=O)N[C@H](CCC(=O)O)C(N)=O)nn2)OC(C(=O)O)=C[C@@H]1O` gave an inhibition of 96.2%.

Biological target: not listed separately
Assay: Inhibition of Arthrobacter ureafaciens sialidase using Neu5Acalpha2-3GalbetapNP as substrate after 30 mins by colorimetric assay
Parameters: species or system Paenarthrobacter ureafaciens
Settings: not given
`CC(=O)N[C@H]1[C@H]([C@H](O)[C@H](O)Cn2cc(C[C@H](N)C(=O)N[C@H](CCC(=O)O)C(N)=O)nn2)OC(C(=O)O)=C[C@@H]1O` gave an IC50 of 1.87 µM.

Biological target: Sialidase (Vibrio cholerae serotype O1 (strain ATCC 39315 / El Tor Inaba N16961)) (UniProt P0C6E9)
Sequence (P0C6E9 whole entry, one chain of several): as the sequence (P0C6E9 whole entry, one chain of several) above
Settings: at 0.1 mM
For `CC(=O)N[C@H]1[C@H]([C@H](O)[C@H](O)Cn2cc(C[C@H](N)C(=O)N[C@H](CCC(=O)O)C(N)=O)nn2)OC(C(=O)O)=C[C@@H]1O`, the inhibition was 85.8%.

Biological target: T2, Sialidase (Clostridium perfringens) (UniProt P10481)
T2 sequence (whole entry): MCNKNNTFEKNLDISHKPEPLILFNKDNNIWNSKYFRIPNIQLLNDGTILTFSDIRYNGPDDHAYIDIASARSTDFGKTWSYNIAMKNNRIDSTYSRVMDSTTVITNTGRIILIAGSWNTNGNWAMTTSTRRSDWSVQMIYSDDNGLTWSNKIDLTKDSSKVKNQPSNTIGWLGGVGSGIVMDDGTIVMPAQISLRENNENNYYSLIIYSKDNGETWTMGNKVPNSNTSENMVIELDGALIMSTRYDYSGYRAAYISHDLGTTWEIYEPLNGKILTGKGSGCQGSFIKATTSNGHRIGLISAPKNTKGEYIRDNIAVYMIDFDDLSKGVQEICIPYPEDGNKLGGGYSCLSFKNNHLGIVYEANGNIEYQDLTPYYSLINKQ
Settings: at 0.1 mM
Compound `CC(=O)N[C@H]1[C@H]([C@H](O)[C@H](O)Cn2cc(C[C@H](N)C(=O)N[C@H](CCC(=O)O)C(N)=O)nn2)OC(C(=O)O)=C[C@@H]1O` has an inhibition of 48.9%.

Tested on: Pasteurella multocida
Settings: at 1 mM
Compound `CC(=O)N[C@H]1[C@H]([C@H](O)[C@H](O)Cn2cc(C[C@H](N)C(=O)N[C@H](CCC(=O)O)C(N)=O)nn2)OC(C(=O)O)=C[C@@H]1O` has an inhibition of 6%.

Biological target: T3, Neuraminidase C (Streptococcus pneumoniae) (UniProt A0A0B7LH44)
T3 sequence (whole entry): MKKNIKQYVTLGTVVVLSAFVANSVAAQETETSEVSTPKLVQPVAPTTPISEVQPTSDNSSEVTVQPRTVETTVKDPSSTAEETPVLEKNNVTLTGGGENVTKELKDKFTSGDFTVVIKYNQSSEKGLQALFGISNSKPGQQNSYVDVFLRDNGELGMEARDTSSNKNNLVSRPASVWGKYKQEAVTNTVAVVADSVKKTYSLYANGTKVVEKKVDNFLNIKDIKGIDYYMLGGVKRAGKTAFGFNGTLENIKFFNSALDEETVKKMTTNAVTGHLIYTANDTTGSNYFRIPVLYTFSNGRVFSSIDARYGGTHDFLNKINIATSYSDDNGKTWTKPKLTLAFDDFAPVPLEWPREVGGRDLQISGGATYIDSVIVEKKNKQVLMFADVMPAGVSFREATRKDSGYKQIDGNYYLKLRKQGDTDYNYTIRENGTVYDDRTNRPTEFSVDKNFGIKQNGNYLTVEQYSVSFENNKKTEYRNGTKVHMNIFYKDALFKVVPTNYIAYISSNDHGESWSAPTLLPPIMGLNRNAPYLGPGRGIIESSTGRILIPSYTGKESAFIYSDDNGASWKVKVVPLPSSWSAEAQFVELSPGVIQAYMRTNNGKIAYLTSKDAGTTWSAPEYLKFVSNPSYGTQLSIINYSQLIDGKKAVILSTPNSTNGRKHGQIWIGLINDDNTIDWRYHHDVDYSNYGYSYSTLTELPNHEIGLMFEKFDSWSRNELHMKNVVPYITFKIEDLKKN
Settings: at 0.1 mM
Compound `CC(=O)N[C@H]1[C@H]([C@H](O)[C@H](O)Cn2cc(C[C@H](N)C(=O)N[C@H](CCC(=O)O)C(N)=O)nn2)OC(C(=O)O)=C[C@@H]1O` has an inhibition of 13.5%.

Biological target: T4, Neuraminidase C (Streptococcus pneumoniae, UniProt A0A0B7LH44)
T4 sequence (A0A0B7LH44 whole entry): T3 sequence (whole entry)
Assay: Inhibition of Streptococcus pneumoniae sialidase NanC using Neu5Acalpha2-3GalbetapNP as substrate after 30 mins by colorimetric assay
Settings: not given
Compound `CC(=O)N[C@H]1[C@H]([C@H](O)[C@H](O)Cn2cc(C[C@H](N)C(=O)N[C@H](CCC(=O)O)C(N)=O)nn2)OC(C(=O)O)=C[C@@H]1O` has an IC50 of over 1000 µM.

Tested on: Pasteurella multocida
Settings: at 0.1 mM
`CC(=O)N[C@H]1[C@H]([C@H](O)[C@H](O)Cn2cc(C[C@H](N)C(=O)N[C@H](CCC(=O)O)C(N)=O)nn2)OC(C(=O)O)=C[C@@H]1O` gave an inhibition of 0.1%.

Biological target: T2, Sialidase (Clostridium perfringens)
Settings: at 1 mM
With `CC(=O)N[C@H]1[C@H]([C@H](O)[C@H](O)Cn2cc(C[C@H](N)C(=O)N[C@H](CCC(=O)O)C(N)=O)nn2)OC(C(=O)O)=C[C@@H]1O` the inhibition was 84.6%.

Tested on: Bifidobacterium longum subsp. infantis
Settings: ATCC 15697, at 0.1 mM
Compound `CC(=O)N[C@H]1[C@H]([C@H](O)[C@H](O)Cn2cc(C[C@H](N)C(=O)N[C@H](CCC(=O)O)C(N)=O)nn2)OC(C(=O)O)=C[C@@H]1O` has an inhibition of 3.3%.

Biological target: T5, Sialidase B (Streptococcus pneumoniae serotype 4 (strain ATCC BAA-334 / TIGR4), UniProt Q54727)
T5 sequence (Q54727 whole entry): T1 sequence (whole entry)
Assay: Inhibition of Streptococcus pneumoniae NanB using Neu5Acalpha2-3GalbetapNP as substrate after 30 mins by colorimetric assay
Settings: not given
`CC(=O)N[C@H]1[C@H]([C@H](O)[C@H](O)Cn2cc(C[C@H](N)C(=O)N[C@H](CCC(=O)O)C(N)=O)nn2)OC(C(=O)O)=C[C@@H]1O` showed an IC50 of over 1000 µM.

Biological target: T1, Sialidase B (Streptococcus pneumoniae serotype 4 (strain ATCC BAA-334 / TIGR4))
Settings: at 0.1 mM
In the case of `CC(=O)N[C@H]1[C@H]([C@H](O)[C@H](O)Cn2cc(C[C@H](N)C(=O)N[C@H](CCC(=O)O)C(N)=O)nn2)OC(C(=O)O)=C[C@@H]1O`, the inhibition is reported as 12.6%.

Biological target: Sialidase (Vibrio cholerae serotype O1 (strain ATCC 39315 / El Tor Inaba N16961)) (UniProt P0C6E9)
Settings: at 1 mM
For `CC(=O)N[C@H]1[C@H]([C@H](O)[C@H](O)Cn2cc(C[C@H](N)C(=O)N[C@H](CCC(=O)O)C(N)=O)nn2)OC(C(=O)O)=C[C@@H]1O`, the inhibition was 93.5%.

Tested on: Bifidobacterium longum subsp. infantis
Settings: ATCC 15697, at 1 mM
`CC(=O)N[C@H]1[C@H]([C@H](O)[C@H](O)Cn2cc(C[C@H](N)C(=O)N[C@H](CCC(=O)O)C(N)=O)nn2)OC(C(=O)O)=C[C@@H]1O` showed an inhibition of 76.4%.

Biological target: T3, Neuraminidase C (Streptococcus pneumoniae)
Settings: at 1 mM
Work on `CC(=O)N[C@H]1[C@H]([C@H](O)[C@H](O)Cn2cc(C[C@H](N)C(=O)N[C@H](CCC(=O)O)C(N)=O)nn2)OC(C(=O)O)=C[C@@H]1O` yielded an inhibition of 29.7%.

Biological target: Sialidase A (Streptococcus pneumoniae) (UniProt P62575)
Settings: at 0.1 mM
With `CC(=O)N[C@H]1[C@H]([C@H](O)[C@H](O)Cn2cc(C[C@H](N)C(=O)N[C@H](CCC(=O)O)C(N)=O)nn2)OC(C(=O)O)=C[C@@H]1O` the inhibition was 61.9%.

Biological target: Sialidase A (Streptococcus pneumoniae, UniProt P62575)
Sequence (P62575 whole entry): as the sequence (P62575 whole entry) above
Assay: Inhibition of Streptococcus pneumoniae NanA using Neu5Acalpha2-3GalbetapNP as substrate after 30 mins by colorimetric assay
Settings: not given
`CC(=O)N[C@H]1[C@H]([C@H](O)[C@H](O)Cn2cc(C[C@H](N)C(=O)N[C@H](CCC(=O)O)C(N)=O)nn2)OC(C(=O)O)=C[C@@H]1O` gave an IC50 of 65.6 µM.
